Results: paper PMC10135057, “Molecular Modification of Kex2 P1’ Site Enhances Expression and Druggability of Fungal Defensin” (Antibiotics, 2023)
Several values for one entry are separate records, joined by “and”; a condition that tells them apart may be missing. Identical values can stand only once. Like-named read-outs stand apart in the source and are kept apart here. One block for each compound: values may come before it. Bridge positions count the residues as written; N and C are the ends. Ends that are not written are not given here.

Assays:
S. aureus ATCC 43300 [1] = assay: Salts stability (MIC after incubation with Na+ or Mg2+); assay type: cell-based, Staphylococcus aureus; conditions: 37 °C, 1 h, MIC vs S. aureus ATCC 43300, triplicate, read-out: MIC after treatment
[2] = test system: Salmonella enterica ATCC 13076; assay: Minimal inhibitory concentration (MIC); assay type: cell-based; conditions: CLSI procedure, triplicate
Experimental: (§1) The minimal inhibitory concentrations (MICs) assay was performed according to the CLSI procedures with the final peptide concentrations of 256, 128, 64, 32, 16, 8, 4, 2, 1, and 0.5 μg/mL, respectively. All tests were conducted in triplicate.

[3] = test system: Pseudomonas aeruginosa CICC 20625; assay: Minimal inhibitory concentration (MIC); assay type: cell-based; conditions: CLSI procedure, triplicate
Experimental: as §1

RAW264.7 cells = assay: Cytotoxicity, MTT assay; assay type: cell-based, mouse; conditions: at 128 μg/mL, n = 3
From the text: The MTT assay was used to test the cytotoxicity of FNZ to the RAW 264.7 cells.

[4] = test system: Gram-negative bacteria (E. coli, S. enterica, P. aeruginosa); assay: MIC, summary over Gram-negative bacteria; assay type: cell-based
Experimental: as §1

S. aureus ATCC 43300 [5] = assay: pH stability (MIC after pH treatment); assay type: physicochemical, Staphylococcus aureus; conditions: MIC vs S. aureus ATCC 43300, triplicate
Experimental: (§2) The tolerance of FNZ to temperature and pH was evaluated. The stability of FNZ in simulated gastric fluid, artificial intestinal fluid and mouse serum was carried out as previously described. […] All assays were conducted in triplicate.

[6] = test system: S. epidermidis ATCC 12228; assay: microbe, parasite or virus in culture; assay type: cell-based, Staphylococcus epidermidis; conditions: S. epidermidis ATCC 12228, CLSI procedure, triplicate, read-out: MIC
Experimental: as §1

S. aureus ATCC 43300 [7] = assay: microbe, parasite or virus in culture; assay type: cell-based, Staphylococcus aureus; conditions: S. aureus ATCC 43300; for MIC: Staphylococcus aureus, ATCC43300, read-out: MICa (MIC of drug alone)
Experimental: The effects of combination were evaluated by calculating the FICI. FICI ≤ 0.5 was defined as synergy, 0.5 < FICI ≤ 1 was defined as additivity, 1 < FICI ≤ 4 was defined as indifference, and FICI > 4 was defined as antagonism.

[8] = test system: Escherichia coli ATCC 25922; assay: microbe, parasite or virus in culture; assay type: cell-based; conditions: Escherichia coli ATCC 25922, CLSI procedure, triplicate, read-out: MIC
Experimental: as §1

[9] = test system: Staphylococcus aureus ATCC 43300; assay: microbe, parasite or virus in culture; assay type: cell-based; conditions: S. aureus ATCC 43300, CLSI procedure, triplicate, read-out: MIC
Experimental: as §1

[10] = test system: G+ bacteria (S. aureus, S. hyicus, S. agalactiae, S. epidermidis); assay: MIC, summary over Gram-positive bacteria; assay type: cell-based; conditions: range over S. aureus
Experimental: as §1

S. aureus ATCC 43300 [11] = assay: Thermal stability (MIC after heat treatment); assay type: physicochemical, Staphylococcus aureus; conditions: MIC vs S. aureus ATCC 43300, triplicate
Experimental: as §2

S. aureus ATCC 43300 [12] = assay: Stability in simulated gastric fluid (MIC after treatment); assay type: in vitro ADME, Staphylococcus aureus; conditions: 1 h, MIC vs S. aureus ATCC 43300, triplicate
Experimental: as §2

S. aureus E48 = assay: microbe, parasite or virus in culture; assay type: cell-based, Staphylococcus aureus; conditions: S. aureus E48, CLSI procedure, triplicate, read-out: MIC
Experimental: as §1

S. aureus CVCC 546 = assay: microbe, parasite or virus in culture; assay type: cell-based, Staphylococcus aureus; conditions: S. aureus CVCC 546, CLSI procedure, triplicate, read-out: MIC
Experimental: as §1

S. aureus ATCC 25923 = assay: microbe, parasite or virus in culture; assay type: cell-based, Staphylococcus aureus; conditions: S. aureus ATCC 25923, CLSI procedure, triplicate, read-out: MIC
Experimental: as §1

S. aureus ATCC 43300 [13] = assay: Stability in mouse serum (MIC after treatment); assay type: in vitro ADME, Staphylococcus aureus; conditions: mouse serum (25%), 1–4 h
Experimental: as §2

S. aureus ATCC 43300 [14] = assay: Bactericidal kinetics (time-killing curves); assay type: cell-based, Staphylococcus aureus; conditions: FNZ 1×, 2×, 4× MIC; ampicillin 2× MIC; S. aureus ATCC 43300
Experimental: The S. aureus ATCC 43300 in logarithmic growth stage was diluted to a final concentration of 10^6 CFU/mL. […] Samples were taken at 0, 0.5, 1, 2, 4, 6, 8, 10, 20, and 24 h, serially diluted, and visible colonies were counted on MHA plates.

Compound: FGFGCNGPWNEDDLRCHNHCKSIKGYKGGYCAKGGFVCKCY (disulfide 5-31, 16-38, 20-40) [FNZ]
MIC (S. aureus ATCC 43300 [1]; 50 mM Mg2+): 1.75 µM
MIC (S. aureus ATCC 43300 [1]; 50 mM Na+): 1.75 µM
MIC (S. aureus ATCC 43300 [1]; 100 mM Mg2+): 1.75 µM
MIC (S. aureus ATCC 43300 [1]; 100 mM Na+): 1.75 µM
MIC (S. aureus ATCC 43300 [1]; 150 mM Mg2+): 1.75 µM
MIC (S. aureus ATCC 43300 [1]; 150 mM Na+): 1.75 µM
MIC (S. aureus ATCC 43300 [1]; 300 mM Mg2+): 3.5 µM
MIC (S. aureus ATCC 43300 [1]; 300 mM Na+): 1.75 µM
MIC (S. aureus ATCC 43300 [1]; 500 mM Mg2+): >7 µM
MIC (S. aureus ATCC 43300 [1]; 500 mM Na+): 3.5 µM
MIC [2]: >28.05 µM
MIC [3]: >28.05 µM
Cell viability (survival) (RAW264.7 cells): 88.56%
MICs, Gram-negative bacteria [4]: > 128 µg/mL
MIC after treatment (S. aureus ATCC 43300 [5]; pH 2): 1.75 µM
MIC after treatment (S. aureus ATCC 43300 [5]; pH 4): 1.75 µM
MIC after treatment (S. aureus ATCC 43300 [5]; pH 6): 1.75 µM
MIC after treatment (S. aureus ATCC 43300 [5]; pH 8): 1.75 µM
MIC after treatment (S. aureus ATCC 43300 [5]; pH 10): 3.5 µM
MIC [6]: 1.75 µM
FIC (S. aureus ATCC 43300 [7]; combination FNZ + Amp): 0.016
FIC (S. aureus ATCC 43300 [7]; combination FNZ + Cip): 0.031
FIC (S. aureus ATCC 43300 [7]; combination FNZ + Kan): 0.063
FIC (S. aureus ATCC 43300 [7]; combination FNZ + Van): 0.125
MIC [8]: >28.05 µM
MIC [9]: 1.75 µM
MICs, G+ bacteria [10]: 4 to 8 µg/mL
MIC after treatment (S. aureus ATCC 43300 [11]; 20 °C for 1 h): 1.75 µM
MIC after treatment (S. aureus ATCC 43300 [11]; 40 °C for 1 h): 1.75 µM
MIC after treatment (S. aureus ATCC 43300 [11]; 60 °C for 1 h): 1.75 µM
MIC after treatment (S. aureus ATCC 43300 [11]; 80 °C for 1 h): 1.75 µM
MIC after treatment (S. aureus ATCC 43300 [11]; 100 °C for 1 h): 3.5 µM
MIC after treatment (S. aureus ATCC 43300 [12]): 8 μg/mL and 1.75 μM
MIC (S. aureus E48): 0.88 µM
MIC (S. aureus CVCC 546): 1.75 µM
MIC (S. aureus ATCC 25923): 1.75 µM
Serum stability (in words) (S. aureus ATCC 43300 [13]; MIC read-out): Stable^a
MIC after treatment (S. aureus ATCC 43300 [13]; MIC vs S. aureus ATCC 43300, triplicate): 8 μg/mL and 1.75 μM

MICa (MIC of drug alone) (S. aureus ATCC 43300 [7]; checkerboard, 37 °C, 16 h): 64 µg/mL
MICc (MIC of drug used in combination) (S. aureus ATCC 43300 [7]; combination FNZ + Kan, checkerboard, 37 °C, 16 h): 0.5 µg/mL
Compound: NC[C@H]1O[C@H](O[C@H]2[C@H](O)[C@@H](O[C@H]3O[C@H](CO)[C@@H](O)[C@H](N)[C@H]3O)[C@H](N)C[C@@H]2N)[C@H](O)[C@@H](O)[C@@H]1O [Kan, kanamycin]
Combination effect with FNZ (in words) (S. aureus ATCC 43300 [7]; checkerboard): synergistic effect
FIC (S. aureus ATCC 43300 [7]; combination FNZ + Kan): 0.008

MIC ([6]; Staphylococcus epidermidis, ATCC12228): 2 µg/mL and 2.48 µM
MIC (S. aureus ATCC 43300 [7]; checkerboard, 37 °C, 16 h): 2 µg/mL
MIC ([8]; ATCC25922): 1 µg/mL and 1.24 µM
MIC ([9]; Staphylococcus aureus, ATCC43300): 2 µg/mL and 2.48 µM
MIC (S. aureus E48; Staphylococcus aureus): 0.25 µg/mL and 0.62 µM
MIC (S. aureus CVCC 546; Staphylococcus aureus, CVCC546): 0.25 µg/mL and 0.62 µM
MIC (S. aureus ATCC 25923; Staphylococcus aureus, ATCC25923): 0.25 µg/mL and 0.62 µM
Compound: CC1(C)S[C@@H]2[C@H](NC(=O)[C@H](N)c3ccccc3)C(=O)N2[C@H]1C(=O)O [Ampicillin, ampicillin]
Regrowth (rebound of colonies) up to 24 h (S. aureus ATCC 43300 [14]): rebound situation was observed
Combination effect with FNZ (in words) (S. aureus ATCC 43300 [7]; checkerboard): synergistic effect
FIC (S. aureus ATCC 43300 [7]; combination FNZ + Amp): 0.063

MIC (S. aureus ATCC 43300 [7]; checkerboard, 37 °C, 16 h): 0.25 µg/mL
MICc (MIC of drug used in combination) (S. aureus ATCC 43300 [7]; combination FNZ + Cip, checkerboard, 37 °C, 16 h): 0.375 µg/mL
Compound: O=C(O)c1cn(C2CC2)c2cc(N3CCNCC3)c(F)cc2c1=O [Cip, ciprofloxacin]
